Test systems include OVCAR-4 ovarian; NCI-H23 lung; BT-549 breast; IGROV1 ovarian; MOLT-4 leukemia; OVCAR-8 ovarian; UO-31 renal; HCT-15 colon; HS 578T breast; SR leukemia.
Common to all, as to test: DTP human tumour cell line panel, 48 h

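In this assay, cells in 96-well plates receive the compound at five concentrations for 48 hours. Endpoints are linearly interpolated between the surrounding concentrations. Abbreviation: GI50, concentration required for 50% inhibition of growth. TGI: total growth inhibition.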 A value given as a limit tells only on which side of the number the result lay.

On to `Cc1cc(O)cc2c1[C@]1(C)CCC3C(C)(C)CCC[C@]3(C)[C@H]1C2` (stereo partly drawn), for which the GI50 with OVCAR-4 ovarian is 17.5 µM; with NCI-H23 lung, 22.5 µM; in the assay with BT-549 breast it was 21.6 µM; with IGROV1 ovarian, 20.5 µM; in the assay on MOLT-4 leukemia, 28.1 µM; in the assay on OVCAR-8 ovarian, 26.1 µM. Also, the GI50 in the assay on UO-31 renal was 20.5 µM; with HCT-15 colon, 19.9 µM; in the assay with HS 578T breast it was 22.6 µM. For the same molecule, the TGI amounted to 33.8 µM in the assay on OVCAR-4 ovarian; 42 µM in the assay on NCI-H23 lung; 38.6 µM in the assay on BT-549 breast; 36.9 µM in the assay with IGROV1 ovarian; 98.6 µM in the assay with MOLT-4 leukemia; 54.8 µM with OVCAR-8 ovarian. The TGI in the assay on UO-31 renal was 36.4 µM; in the assay on HCT-15 colon it was 38.1 µM; in the assay with HS 578T breast, 44.6 µM.

Take `COc1ccc(/C(COc2ccc3c(=O)c(-c4ccccc4)coc3c2)=N\O)cc1`: the GI50 with OVCAR-4 ovarian is 16.1 µM; with NCI-H23 lung it was 19.3 µM; with BT-549 breast it was 8.27 µM; in the assay on IGROV1 ovarian, 7.37 µM; in the assay on MOLT-4 leukemia, 1.08 µM; in the assay on OVCAR-8 ovarian it was 12.1 µM. The GI50 in the assay with UO-31 renal was 9.02 µM; in the assay with HCT-15 colon, 0.349 µM; in the assay on HS 578T breast it was 3.79 µM. In addition, the TGI in the assay on OVCAR-4 ovarian was greater than 100 µM; with NCI-H23 lung, 62.8 µM; in the assay with BT-549 breast, 54.7 µM; with IGROV1 ovarian, 38.3 µM; with MOLT-4 leukemia it was greater than 100 µM; in the assay with OVCAR-8 ovarian, 64.3 µM. Moreover, the figures for the TGI in the assay with UO-31 renal, with HCT-15 colon and with HS 578T breast were 27.7 µM, 12.9 µM and 44.6 µM, respectively.

Consider `O=C1NC(=O)C(c2ccccc2Cl)=C1Nc1cc(Cl)c(O)c(Cl)c1`, for which the GI50 was 13.7 µM in the assay with OVCAR-4 ovarian; 16.7 µM in the assay with BT-549 breast; greater than 25 µM in the assay with IGROV1 ovarian; 16 µM in the assay with MOLT-4 leukemia; 17.6 µM in the assay with OVCAR-8 ovarian; greater than 23.4 µM with UO-31 renal. Further, the values for the GI50 in the assay with HCT-15 colon and with HS 578T breast were 15 µM and 10.9 µM, respectively. Besides, the TGI with OVCAR-4 ovarian, in the assay on BT-549 breast, in the assay with IGROV1 ovarian, in the assay with MOLT-4 leukemia, with OVCAR-8 ovarian and in the assay on UO-31 renal was greater than 25 µM in each case. Also, the TGI in the assay with HCT-15 colon and in the assay on HS 578T breast was greater than 25 µM throughout.

`CC(=O)N1C/C(=C/c2ccc(Cl)cc2)C(=O)/C(=C/c2ccc(Cl)cc2)C1`: the GI50 was 0.795 µM with OVCAR-4 ovarian; 1.5 µM in the assay with NCI-H23 lung; 0.435 µM with BT-549 breast; 0.761 µM in the assay with IGROV1 ovarian; 0.249 µM in the assay with MOLT-4 leukemia; 0.463 µM in the assay with OVCAR-8 ovarian. Further, the values for the GI50 with UO-31 renal, with HCT-15 colon and with HS 578T breast were 0.887 µM, 0.446 µM and 1.43 µM, respectively. The TGI came out at 3.22 µM in the assay on OVCAR-4 ovarian; 3.67 µM in the assay with NCI-H23 lung; 1.32 µM in the assay on BT-549 breast; 2.11 µM with IGROV1 ovarian; 7.58 µM with MOLT-4 leukemia; 2.17 µM in the assay on OVCAR-8 ovarian. The values for the TGI in the assay with UO-31 renal, in the assay with HCT-15 colon and in the assay with HS 578T breast were 2.35 µM, 1.52 µM and 5.24 µM, respectively.

Consider `c1cc(N2CCCN(c3ccc(C4=NCCCN4)cc3)CC2)ccc1C1=NCCCN1`, for which the GI50 in the assay with OVCAR-4 ovarian, in the assay with NCI-H23 lung, in the assay on BT-549 breast, in the assay on IGROV1 ovarian, in the assay on MOLT-4 leukemia and in the assay with OVCAR-8 ovarian was greater than 100 µM throughout. For the same molecule, the GI50 with UO-31 renal is greater than 100 µM; in the assay on HCT-15 colon, greater than 100 µM; with HS 578T breast, 77.7 µM. Further, the TGI in the assay with OVCAR-4 ovarian, with NCI-H23 lung, in the assay with BT-549 breast, in the assay on IGROV1 ovarian, with MOLT-4 leukemia and in the assay with OVCAR-8 ovarian was greater than 100 µM in each case. Further, the TGI with UO-31 renal, in the assay on HCT-15 colon and in the assay on HS 578T breast was greater than 100 µM throughout.

As to `c1ccc2c(NCCCCCCNc3c4ccccc4nc4ccccc34)c3ccccc3nc2c1`, the TGI amounted to 2.18 µM in the assay with OVCAR-4 ovarian; 2.33 µM in the assay on NCI-H23 lung; 3.32 µM in the assay with BT-549 breast; 0.212 µM with MOLT-4 leukemia; 3.18 µM in the assay on OVCAR-8 ovarian; 23.5 µM with UO-31 renal. The TGI with SR leukemia came out at 0.991 µM; with HCT-15 colon, 16.7 µM; with HS 578T breast, 3.05 µM.

In the case of `NC1CCC(Nc2nc(NCc3ccc(-c4ccccc4O)nc3)c3ncn(C4CCCC4)c3n2)CC1` (stereo not drawn), the GI50 is 0.0214 µM with NCI-H23 lung; 0.0998 µM in the assay with BT-549 breast; 0.0345 µM in the assay with IGROV1 ovarian; less than 0.01 µM in the assay with MOLT-4 leukemia; 0.0759 µM with UO-31 renal; 0.0354 µM in the assay on SR leukemia. Moreover, the GI50 in the assay on HCT-15 colon was 0.21 µM; in the assay on HS 578T breast, less than 0.011 µM. In addition, the TGI came out at 0.0664 µM in the assay on NCI-H23 lung; 0.623 µM with BT-549 breast; 2.04 µM in the assay with IGROV1 ovarian; 0.213 µM in the assay with MOLT-4 leukemia; 0.545 µM with UO-31 renal; 1.35 µM with SR leukemia. Also, the TGI with HCT-15 colon turned out to be 1.14 µM; in the assay with HS 578T breast, 1.34 µM.

In general, GI50 refers to the concentration at which growth is held to half of that of the control. As usually defined, the TGI is the concentration at which net growth stops. A high value points to lower sensitivity of the cells.

The record behind these values is PubChem BioAssay (NCI).
